Assay results taken from ChEMBL document CHEMBL5649169 (ChemMedChem, 2018).

Assays:
[1] = target: Eukaryotic translation initiation factor 3 subunit I (Homo sapiens) (UniProt Q13347)
[2] = target: Synaptic vesicle membrane protein VAT-1 homolog (Homo sapiens) (UniProt Q99536)
[3] = target: Glycine--tRNA ligase (Homo sapiens) (UniProt P41250)
[4] = target: T-complex protein 1 subunit eta (Homo sapiens) (UniProt Q99832)
[5] = target: Serine/threonine-protein phosphatase 2A 65 kDa regulatory subunit A alpha isoform (Homo sapiens) (UniProt P30153)
[6] = target: Splicing factor 3B subunit 3 (Homo sapiens) (UniProt Q15393)
Splicing factor 3B subunit 3 (Homo sapiens), sequence (Q15393 whole entry): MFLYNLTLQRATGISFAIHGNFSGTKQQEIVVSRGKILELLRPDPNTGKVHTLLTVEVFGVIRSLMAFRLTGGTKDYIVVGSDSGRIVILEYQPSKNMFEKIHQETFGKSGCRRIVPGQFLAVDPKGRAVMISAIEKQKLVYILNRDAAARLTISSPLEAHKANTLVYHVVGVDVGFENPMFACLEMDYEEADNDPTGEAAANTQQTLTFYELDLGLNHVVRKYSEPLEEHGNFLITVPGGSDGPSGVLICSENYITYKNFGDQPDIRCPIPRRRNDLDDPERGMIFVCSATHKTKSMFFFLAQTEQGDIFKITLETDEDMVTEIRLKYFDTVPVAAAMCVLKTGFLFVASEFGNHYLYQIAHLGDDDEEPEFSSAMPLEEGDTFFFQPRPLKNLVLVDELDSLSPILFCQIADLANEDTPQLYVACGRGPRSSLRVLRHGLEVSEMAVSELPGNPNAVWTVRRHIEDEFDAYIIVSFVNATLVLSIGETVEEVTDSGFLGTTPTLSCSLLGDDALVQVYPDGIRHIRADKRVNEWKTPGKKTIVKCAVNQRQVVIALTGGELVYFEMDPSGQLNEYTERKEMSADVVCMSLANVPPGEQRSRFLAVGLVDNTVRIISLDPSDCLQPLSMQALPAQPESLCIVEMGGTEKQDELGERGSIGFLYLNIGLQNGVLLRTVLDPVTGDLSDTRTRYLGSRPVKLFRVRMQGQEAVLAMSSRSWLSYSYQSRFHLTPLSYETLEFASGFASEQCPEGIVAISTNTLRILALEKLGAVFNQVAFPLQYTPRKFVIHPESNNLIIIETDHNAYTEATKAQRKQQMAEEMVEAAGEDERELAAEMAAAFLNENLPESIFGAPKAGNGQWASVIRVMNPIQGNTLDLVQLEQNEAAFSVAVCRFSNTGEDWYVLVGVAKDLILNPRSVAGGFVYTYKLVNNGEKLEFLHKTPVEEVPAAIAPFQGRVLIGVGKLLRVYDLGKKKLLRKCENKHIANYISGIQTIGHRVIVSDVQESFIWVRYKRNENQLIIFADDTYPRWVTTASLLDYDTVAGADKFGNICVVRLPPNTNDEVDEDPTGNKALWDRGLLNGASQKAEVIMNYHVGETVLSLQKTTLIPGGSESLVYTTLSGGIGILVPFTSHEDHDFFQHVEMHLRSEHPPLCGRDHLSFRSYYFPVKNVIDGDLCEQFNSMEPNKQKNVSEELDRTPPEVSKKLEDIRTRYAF

[7] = target: Serine/threonine-protein kinase PLK4 (Homo sapiens) (UniProt O00444)
[8] = target: SERPINE1 mRNA-binding protein 1 (Homo sapiens) (UniProt Q8NC51)
[9] = target: Mitogen-activated protein kinase kinase kinase 20 (Homo sapiens) (UniProt Q9NYL2)
Mitogen-activated protein kinase kinase kinase 20 (Homo sapiens), sequence (Q9NYL2 2-800 limits assumed): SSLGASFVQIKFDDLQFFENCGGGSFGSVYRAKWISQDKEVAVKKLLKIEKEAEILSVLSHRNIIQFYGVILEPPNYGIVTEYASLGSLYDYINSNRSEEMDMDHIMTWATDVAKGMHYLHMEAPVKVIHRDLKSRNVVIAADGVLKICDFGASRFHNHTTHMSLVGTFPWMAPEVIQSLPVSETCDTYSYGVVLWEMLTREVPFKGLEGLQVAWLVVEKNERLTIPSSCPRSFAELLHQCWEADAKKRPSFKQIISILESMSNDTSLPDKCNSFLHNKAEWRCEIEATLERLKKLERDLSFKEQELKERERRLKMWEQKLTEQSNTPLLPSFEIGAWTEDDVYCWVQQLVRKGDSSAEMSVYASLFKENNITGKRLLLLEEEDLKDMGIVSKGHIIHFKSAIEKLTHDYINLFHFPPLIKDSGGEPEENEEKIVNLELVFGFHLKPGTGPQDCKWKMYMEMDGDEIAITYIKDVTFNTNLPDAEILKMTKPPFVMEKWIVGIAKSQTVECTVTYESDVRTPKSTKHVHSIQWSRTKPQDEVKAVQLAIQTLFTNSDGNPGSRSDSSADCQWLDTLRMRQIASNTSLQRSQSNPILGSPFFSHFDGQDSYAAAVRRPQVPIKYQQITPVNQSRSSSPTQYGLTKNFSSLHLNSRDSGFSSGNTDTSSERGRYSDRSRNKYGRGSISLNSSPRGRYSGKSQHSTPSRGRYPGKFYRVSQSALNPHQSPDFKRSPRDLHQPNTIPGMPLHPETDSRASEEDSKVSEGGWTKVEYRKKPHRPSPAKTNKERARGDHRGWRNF

[10] = target: Histone deacetylase 2 (Homo sapiens) (UniProt Q92769)
[11] = target: Ephrin type-B receptor 6 (Homo sapiens) (UniProt O15197)
[12] = target: Protein diaphanous homolog 1 (Homo sapiens) (UniProt O60610)
[13] = target: Protein MON2 homolog (Homo sapiens) (UniProt Q7Z3U7)
[14] = target: Protein RRP5 homolog (Homo sapiens) (UniProt Q14690)
Protein RRP5 homolog (Homo sapiens), sequence (Q14690 whole entry): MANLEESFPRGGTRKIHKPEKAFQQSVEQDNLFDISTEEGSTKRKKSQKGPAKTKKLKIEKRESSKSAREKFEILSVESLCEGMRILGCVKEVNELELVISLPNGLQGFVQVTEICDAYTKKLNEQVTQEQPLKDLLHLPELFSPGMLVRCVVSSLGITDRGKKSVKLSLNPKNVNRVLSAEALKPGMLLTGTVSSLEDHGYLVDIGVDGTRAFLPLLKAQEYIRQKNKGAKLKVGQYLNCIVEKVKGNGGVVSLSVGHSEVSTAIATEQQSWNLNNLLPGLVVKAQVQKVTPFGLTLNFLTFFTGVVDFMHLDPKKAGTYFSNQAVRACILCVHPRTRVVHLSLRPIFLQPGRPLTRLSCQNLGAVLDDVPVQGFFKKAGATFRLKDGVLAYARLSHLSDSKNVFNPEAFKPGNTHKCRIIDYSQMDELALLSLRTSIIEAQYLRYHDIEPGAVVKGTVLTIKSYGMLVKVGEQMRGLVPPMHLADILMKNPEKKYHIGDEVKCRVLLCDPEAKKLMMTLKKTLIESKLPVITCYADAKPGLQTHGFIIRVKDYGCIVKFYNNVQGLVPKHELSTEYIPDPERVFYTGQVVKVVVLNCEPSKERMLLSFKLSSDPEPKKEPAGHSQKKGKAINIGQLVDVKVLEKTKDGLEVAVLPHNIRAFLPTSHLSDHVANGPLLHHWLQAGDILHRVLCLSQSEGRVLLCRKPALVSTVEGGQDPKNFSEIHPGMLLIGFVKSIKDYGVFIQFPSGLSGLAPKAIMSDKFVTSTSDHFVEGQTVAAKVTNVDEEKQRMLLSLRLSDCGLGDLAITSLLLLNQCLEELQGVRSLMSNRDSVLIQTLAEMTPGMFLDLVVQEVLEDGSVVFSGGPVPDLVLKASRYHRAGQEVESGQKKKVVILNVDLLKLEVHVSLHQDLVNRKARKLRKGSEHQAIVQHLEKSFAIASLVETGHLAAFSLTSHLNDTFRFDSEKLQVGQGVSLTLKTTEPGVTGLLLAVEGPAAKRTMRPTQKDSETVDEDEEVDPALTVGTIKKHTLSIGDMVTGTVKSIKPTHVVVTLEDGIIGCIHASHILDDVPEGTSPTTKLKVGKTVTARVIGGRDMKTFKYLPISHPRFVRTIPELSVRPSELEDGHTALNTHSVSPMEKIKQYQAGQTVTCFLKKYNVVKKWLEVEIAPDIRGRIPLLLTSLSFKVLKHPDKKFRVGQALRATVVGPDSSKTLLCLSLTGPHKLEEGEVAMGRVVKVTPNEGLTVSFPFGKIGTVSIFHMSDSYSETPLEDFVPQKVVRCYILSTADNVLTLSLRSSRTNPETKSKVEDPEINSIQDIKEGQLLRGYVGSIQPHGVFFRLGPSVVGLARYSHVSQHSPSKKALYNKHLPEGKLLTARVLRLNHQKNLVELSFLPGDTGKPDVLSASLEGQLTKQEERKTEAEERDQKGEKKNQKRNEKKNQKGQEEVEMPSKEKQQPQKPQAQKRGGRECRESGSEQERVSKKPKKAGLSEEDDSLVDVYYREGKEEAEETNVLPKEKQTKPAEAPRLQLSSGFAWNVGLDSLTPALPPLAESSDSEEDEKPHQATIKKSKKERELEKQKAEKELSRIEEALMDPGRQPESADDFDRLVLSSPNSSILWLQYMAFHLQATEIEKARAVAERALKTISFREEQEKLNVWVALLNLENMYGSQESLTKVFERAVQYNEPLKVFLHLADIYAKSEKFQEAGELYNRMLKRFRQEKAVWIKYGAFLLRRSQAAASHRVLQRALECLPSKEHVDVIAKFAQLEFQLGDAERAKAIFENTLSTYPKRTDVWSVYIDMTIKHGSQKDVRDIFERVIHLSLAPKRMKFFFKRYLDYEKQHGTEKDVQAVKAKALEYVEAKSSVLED

[15] = target: Nuclear cap-binding protein subunit 1 (Homo sapiens) (UniProt Q09161)
[16] = target: Mitochondrial-processing peptidase subunit beta (Homo sapiens) (UniProt O75439)
[17] = target: Proteasome activator complex subunit 2 (Homo sapiens) (UniProt Q9UL46)
[18] = target: cAMP-dependent protein kinase catalytic subunit gamma (Homo sapiens) (UniProt P22612)
[19] = target: Heterogeneous nuclear ribonucleoprotein Q (Homo sapiens) (UniProt O60506)
[20] = target: Small ribosomal subunit protein eS27 (Homo sapiens) (UniProt P42677)
[21] = target: Cathepsin D (Homo sapiens) (UniProt P07339)
[22] = target: Large ribosomal subunit protein uL30 (Homo sapiens) (UniProt P18124)
[23] = target: Cyclin-T1 (Homo sapiens) (UniProt O60563)
Cyclin-T1 (Homo sapiens), sequence (O60563 whole entry): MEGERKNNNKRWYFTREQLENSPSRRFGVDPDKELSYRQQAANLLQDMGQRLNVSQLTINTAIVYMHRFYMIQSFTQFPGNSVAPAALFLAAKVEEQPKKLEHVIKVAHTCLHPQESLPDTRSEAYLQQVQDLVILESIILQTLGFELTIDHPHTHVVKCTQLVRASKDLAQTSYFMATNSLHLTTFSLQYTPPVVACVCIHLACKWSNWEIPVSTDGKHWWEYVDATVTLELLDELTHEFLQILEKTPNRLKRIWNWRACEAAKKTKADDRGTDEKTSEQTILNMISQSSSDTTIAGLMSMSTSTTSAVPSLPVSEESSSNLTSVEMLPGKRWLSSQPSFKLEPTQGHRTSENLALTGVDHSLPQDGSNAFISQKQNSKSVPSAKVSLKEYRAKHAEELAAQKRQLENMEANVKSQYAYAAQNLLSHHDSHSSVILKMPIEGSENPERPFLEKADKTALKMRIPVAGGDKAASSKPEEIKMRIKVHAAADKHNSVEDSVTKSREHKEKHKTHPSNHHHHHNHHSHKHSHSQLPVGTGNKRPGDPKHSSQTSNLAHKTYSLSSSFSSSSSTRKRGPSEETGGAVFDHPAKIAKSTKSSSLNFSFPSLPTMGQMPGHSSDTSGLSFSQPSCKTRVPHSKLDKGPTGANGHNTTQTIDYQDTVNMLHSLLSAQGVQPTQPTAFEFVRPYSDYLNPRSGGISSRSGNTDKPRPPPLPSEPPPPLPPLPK

[24] = target: Interleukin-1 receptor-associated kinase 3 (Homo sapiens) (UniProt Q9Y616)
[25] = target: Lamina-associated polypeptide 2, isoform alpha (Homo sapiens) (UniProt P42166)
[26] = target: Sideroflexin-1 (Homo sapiens) (UniProt Q9H9B4)
Sideroflexin-1 (Homo sapiens), sequence (Q9H9B4 whole entry): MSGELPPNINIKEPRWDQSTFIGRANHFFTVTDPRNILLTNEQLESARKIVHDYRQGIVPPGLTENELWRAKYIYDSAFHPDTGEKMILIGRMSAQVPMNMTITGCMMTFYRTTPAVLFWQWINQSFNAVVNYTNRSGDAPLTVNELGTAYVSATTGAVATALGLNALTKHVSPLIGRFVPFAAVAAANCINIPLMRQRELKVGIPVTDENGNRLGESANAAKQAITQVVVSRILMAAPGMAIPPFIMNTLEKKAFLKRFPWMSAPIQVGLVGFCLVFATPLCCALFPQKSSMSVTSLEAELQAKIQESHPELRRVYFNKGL

[27] = target: Polypyrimidine tract-binding protein 1 (Homo sapiens) (UniProt P26599)
[28] = target: T-complex protein 1 subunit delta (Homo sapiens) (UniProt P50991)
[29] = target: DDB1- and CUL4-associated factor 7 (Homo sapiens) (UniProt P61962)
[30] = target: Cytochrome c oxidase subunit 2 (Homo sapiens) (UniProt P00403)
[31] = target: Vimentin (Homo sapiens) (UniProt P08670)
[32] = species on record: Homo sapiens
[33] = target: Ribosyldihydronicotinamide dehydrogenase [quinone] (Homo sapiens) (UniProt P16083)
[34] = species on record: Homo sapiens; remark: listed apart in the source
[35] = target: Sarcoplasmic/endoplasmic reticulum calcium ATPase 2 (Homo sapiens) (UniProt P16615)
[36] = target: Cyclin-dependent kinase-like 5 (Homo sapiens) (UniProt O76039)
[37] = target: 5'-AMP-activated protein kinase subunit gamma-1 (Homo sapiens) (UniProt P54619)
[38] = target: Importin subunit beta-1 (Homo sapiens) (UniProt Q14974)
[39] = target: THO complex subunit 4 (Homo sapiens) (UniProt Q86V81)
[40] = target: 26S proteasome non-ATPase regulatory subunit 7 (Homo sapiens) (UniProt P51665)
[41] = target: Large ribosomal subunit protein uL23 (Homo sapiens) (UniProt P62750)
[42] = target: Cyclin-dependent kinase 9 (Homo sapiens) (UniProt P50750)
[43] = target: Katanin p60 ATPase-containing subunit A-like 2 (Homo sapiens) (UniProt Q8IYT4)
[44] = target: ORM1-like protein 3 (Homo sapiens) (UniProt Q8N138)
ORM1-like protein 3 (Homo sapiens), sequence (Q8N138 whole entry): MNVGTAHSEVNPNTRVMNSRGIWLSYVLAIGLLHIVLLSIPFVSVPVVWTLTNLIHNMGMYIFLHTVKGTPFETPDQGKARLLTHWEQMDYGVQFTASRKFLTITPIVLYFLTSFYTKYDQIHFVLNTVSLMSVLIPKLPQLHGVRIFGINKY

[45] = target: Synaptophysin-like protein 1 (Homo sapiens) (UniProt Q16563)
[46] = target: Nestin (Homo sapiens) (UniProt P48681)
[47] = target: Mitogen-activated protein kinase kinase kinase 1 (Homo sapiens) (UniProt Q13233)
Further: assay method not described here.

Work on `Cc1ccc(C(=O)Nc2cccc(C(F)(F)F)c2)cc1Nc1nc(-c2cccnc2)nc2c1cnn2C` yielded an ED50 [1] of 108 nM, an ED50 [2] of 7960 nM and an ED50 [3] of 37.4 nM. It also gave an ED50 [4] of 50300 nM, an ED50 [5] of 2000 nM and an ED50 [6] of 13900 nM. The ED50 [7] was 174 nM, the ED50 [8] was 27.4 nM and the ED50 [9] was 907 nM. It also gave an ED50 [10] of 18900 nM, an ED50 [11] of 364 nM and an ED50 [12] of 5.21 nM. For the same compound, the ED50 [13] was 3.82 nM, the ED50 [14] was 33.9 nM and the ED50 [15] was 0.799 nM. The ED50 [16] was 10500 nM, the ED50 [17] was 1060 nM and the ED50 [18] was 1230 nM. For the same compound, the ED50 [19] was 22.5 nM, the ED50 [20] was 7650 nM and the ED50 [21] was 59300 nM. The ED50 [22] was 16.7 nM, the ED50 [23] was 16.8 nM and the ED50 [24] was 1340 nM. It also gave an ED50 [25] of 3350 nM, an ED50 [26] of 3470 nM and an ED50 [27] of 3120 nM. The ED50 [28] was 1630 nM, the ED50 [29] was 1120 nM and the ED50 [30] was 449 nM. The ED50 [31] was 1030 nM, the ED50 [32] was 3520 nM and the ED50 [33] was 36.5 nM. It also gave an ED50 [34] of 21.7 nM, an ED50 [35] of 9670 nM and an ED50 [36] of 1.62 nM. The ED50 [37] was 3120 nM, the ED50 [38] was 3710 nM and the ED50 [39] was 70300 nM. The ED50 [40] was 4120 nM, the ED50 [41] was 105 nM and the ED50 [42] was 4600 nM. For the same compound, the ED50 [43] was 37.6 nM, the ED50 [44] was 5950 nM and the ED50 [45] was 6430 nM. It also gave an ED50 [46] of 244 nM and an ED50 [47] of 6120 nM.
`Cc1ccc(C(=O)Nc2cccc(C(F)(F)F)c2)cc1Nc1nc(-c2cccnc2)nc2nn(C)cc12` gave an ED50 [1] of 35500 nM, an ED50 [2] of 145000 nM and an ED50 [3] of 17600 nM. For the same compound, the ED50 [4] was 117 nM, the ED50 [5] was 203000 nM and the ED50 [6] was 6080 nM. The ED50 [7] was 4340 nM, the ED50 [8] was 11000 nM and the ED50 [9] was 7750 nM. It also gave an ED50 [10] of 88.1 nM, an ED50 [11] of 6140 nM and an ED50 [12] of 1440 nM. It also gave an ED50 [13] of 191 nM, an ED50 [14] of 71.7 nM and an ED50 [15] of 1780 nM. The ED50 [16] was 47.6 nM, the ED50 [17] was 9770 nM and the ED50 [18] was 137 nM. For the same compound, the ED50 [19] was 296 nM, the ED50 [20] was 470 nM and the ED50 [21] was 760000 nM. The ED50 [22] was 12300 nM, the ED50 [23] was 50.2 nM and the ED50 [24] was 26.2 nM. It also gave an ED50 [25] of 6610 nM, an ED50 [26] of 12 nM and an ED50 [27] of 18300 nM. The ED50 [28] was 26800 nM, the ED50 [29] was 184 nM and the ED50 [30] was 153 nM. For the same compound, the ED50 [31] was 1620 nM, the ED50 [32] was 43200 nM and the ED50 [33] was 4120 nM. It also gave an ED50 [34] of 481000 nM, an ED50 [35] of 23.2 nM and an ED50 [36] of 543 nM. It also gave an ED50 [37] of 29.2 nM, an ED50 [38] of 53.4 nM and an ED50 [39] of 4450 nM. It also gave an ED50 [40] of 71.1 nM, an ED50 [41] of 13.7 nM and an ED50 [42] of 135 nM. For the same compound, the ED50 [43] was 6.47 nM, the ED50 [44] was 7470 nM and the ED50 [45] was 53.5 nM. It also gave an ED50 [46] of 1300 nM and an ED50 [47] of 3340 nM.
